Experimental data as given in US7655225B2, “Methods of expanding stem and progenitor cells and expanded cell populations obtained thereby” (Gamida Cell, Ltd., priority 2002, dated 2010).

Legend:
Assay type in all cases: cell-based, human
[1] = test system: CD34+ cells; assay: Self-renewal potential: colony-forming cells (CFU) from CD34+ cultures; settings: for number of colony-forming cells of CD34+ vs untreated control: 5 and 7 weeks incubation, different concentrations, TPO, FLT-3, IL-6, IL-3, FIGS. 15a-c; for CFUc: eight-week cultures, FIG. 2d, control 0; for numbers of CD34+ Lin− colony-forming cells, fold higher than untreated control: four weeks, with IL-3, FIG. 6d
Description: Ex vivo expansion of progenitor cells: Enriched CD34^+ cell fractions were cultures in 24-well Costar Cell Culture Clusters (Corning Inc., Corning, N.Y.) or in Culture Bags (American Fluoroseal Corp.) with alpha minimal essential medium supplemented with 10% fetal bovine serum (FBS, Biological Industries), at about 1-3×10^4 cells/ml medium. The media were further supplemented with the following human recombinant cytokines (all obtained from Perpo Tech, Inc., Rocky Hill, N.J.): Thrombopoietin (TPO), 50 ng/ml; interleukin 6 (IL-6), 50 ng/ml; FLT-3 ligand, 50 ng/ml; and IL-3, 20 ng/ml. The cultures were incubated at 37° C. in an atmosphere of 5% CO2 in air with extra humidity. At weekly intervals cell cultures were semi-depopulated and supplemented with fresh medium containing the cytokines. Following different incubation periods, the cells were harvested, stained with trypan blue and enumerated. The total cell counts, numbers of CD34^+ cells and subsets thereof, and the number of colony-forming cells (CFU) are presented herein as cumulative numbers, with the assumption that the cultures had not been passaged, namely, the numbers of cells per ml were multiplied by the number of passages performed. Self-renewal potential evaluations: The self-renewal potential of stem cells was determined in vitro by long-term colony formation. Cells were washed and seeded in a semi-solid methylcellulose medium supplemented with 2 IU/ml erythropoietin ([…] Int., Switzerland), stem cell factor and IL-3, both at 20 ng/ml (Perpo Tech), and G-CSF and GM-CSF, both at 10 ng/ml (Perpo Tech). The resulting colonies were scored after two weeks of incubation at 37° C. in a humidified atmosphere of 5% CO2 in air. Colonies were classified as blast, mixed, erythroid, myeloid, and megakaryocytic, according to their cellular composition.

[2] = test system: CD34+ cells; assay: Cellular copper content by atomic absorption; settings: 2 days incubation, relative to untreated control
Description: Cell cultures: Cultures of enriched CD34^+ cell fraction were generated, maintained and analyzed as described in Example 1 above.
Copper Determination: Cells were harvested by centrifugation at 1000 g for 5 minutes. The cell pellet was washed three times in PBS. Aliquots containing 2×10^6 cells were then transferred into a metal-free Eppendorf tube and pelleted by centrifugation at 1000 g. The cell pellet was re-suspended in 0.03 M ultra-pure nitric acid to give a concentration of 1×10^7 cells/ml. The cells were sonicated and then analyzed in duplicate by a Perkin Elmer graphite furnace atomic absorption spectrophotometer at a wavelength of 324.7 nm and a 0.7 slit width. The following times and temperatures were used: drying at 95° C. for 45 seconds with a 15-s ramp; charring at […] for 30 seconds with a 10-s ramp, and atomization at […] for 10 seconds. The peak area was integrated for 10 seconds. The samples were analyzed against copper standard solution prepared from a commercial stock solution that was diluted with 0.03 M ultra pure nitric acid.
Effect of TEPA-Cu chelate and TEPA chelator on the cellular copper content: Purified CD34^+ cell were seeded in liquid culture in the presence of early cytokines and treated either with TEPA-Cu chelate or with TEPA chelator. After 2 days incubation, cells were separated from culture media and analyzed for cellular copper content. The results are presented in Table 1 below and indicate that cultured cells treated with TEPA-Cu chelate, at different concentrations, developed progressively higher cellular copper content. In contrast, cultured cells treated with TEPA chelator, at different concentrations, developed progressively lower cellular copper contents.

[3] = test system: mononuclear cells (MNC); assay: Ex vivo expansion of stem and progenitor cells in mixed cells culture: cell enumeration and FACS; settings: for cumulative number of CD34+ cells: TEPA first three weeks only, FIGS. 16a-b; for cumulative number of CD34+ cells per culture bag: control 2.56×10^6; for Portion of CD34+ cells (%): control 0.2; for Number of CD34+ cells (×10^4): control 256.0
Description: Sample collection and processing: Samples were obtained from umbilical cord blood after a normal full-term delivery and were frozen within 24 hours pospartum. The blood cells were thawed in Dextran buffer and incubated for […] in MEM (Biological Industries, Israel) supplemented with 10% fetal calf serum (FCS; Biological Industries). The cells were then layered on Ficoll-Hypaque (density 1.077 gram/ml; Sigma) and centrifuged at 400 g for 30 minutes at room temperature. The mononuclear cells in the interface layer were then collected, washed three times in phosphate-buffered saline (PBS; Biological Industries), and re-suspended in PBS containing 0.5% human serum albumin (HSA). The cells were then split into two fractions, the first being the mononuclear cells (MNC) and the second fraction was used for purifying CD34^+ cells by immunomagnetic separation using the “MiniMACS CD34^+ progenitor cell isolation kit” (Miltenyi Biotec, Auburn, Calif.) according to the manufacturer's recommendations. The purity of the CD34^+ cells obtained ranged between 95% and 98%, based on Flow Cytometry evaluation (see below). Ex vivo expansion of progenitor cells: The non-purified mononuclear cells (MNC), obtained as described hereinabove, were seeded in Culture Bags (American Fluoroseal Corp.), with alpha minimal essential medium supplemented with 10% fetal bovine serum (FBS, Biological Industries), at a concentration of about 10^6 cells/ml. The purified CD34^+ cells were similarly seeded in the Culture Bags, at a concentration of […]. The media were supplemented with TEPA chelator and/or with the following human recombinant cytokines (all obtained from Perpo Tech, Inc., Rocky Hill, N.J.): Thrombopoietin (TPO), 50 ng/ml; interleukin 6 (IL-6), 50 ng/ml; FLT-3 ligand, 50 ng/ml and a stem cell factor (SCF), 50 ng/ml; occasionally SCF was replaced by IL-3, 20 ng/ml. For non-hemopoietic differentiation, FGF, EGF, NGF, VEGF, LIF or Hepatocyte growth factor, were used alone or in various combinations. All cultures were incubated at 37° C. in an atmosphere of 5% CO2 in air with extra humidity. At weekly intervals, the cell cultures were semi-depopulated and supplemented with fresh medium containing cytokines. Following different incubation periods, cells were harvested, stained with trypan blue and enumerated. Determining the density of stem and progenitor subset populations following expansion was carried out as described in the experimental procedures section of Example 3 above. Non-purified mononuclear cells (MNC) were seeded in culture bags and were provided with nutrients and cytokines as described above. The MNC cultures were either treated or untreated (untreated controls) with TEPA-chelator. The treated MNC cultures were supplemented with TEPA for only the first three weeks and from week three onward were topped with chelator-free media. The pre-purified CD34^+ cultures were not supplemented with TEPA and served as positive controls. The cultures were analyzed weekly during a 12-week period. Non-purified (mixed cells) mononuclear cells (MNC) were seeded in culture bags and were provided with nutrients and cytokines as described in Example 4 above. The mixed cell cultures were either untreated (control) or treated with Cu-TEPA chelate. The treated MNC cultures were supplemented with Cu-TEPA chelate for only the first three weeks and from week three onward were topped with chelator-free media. All cultures were analyzed […].

[4] = 50 μM, MNC culture, eight weeks after seeding
[5] = 100 μM, MNC culture, eight weeks after seeding

SMILES: NCCNCCNCCNCCN [TEPA chelator, tetraethylenepentamine]
- number of colony-forming cells of CD34+ vs untreated control [1]: substantially increased
- Relative cellular-copper content (%) ([2]; 5 μM): 80%
- Relative cellular-copper content (%) ([2]; 10 μM): 55%
- Relative cellular-copper content (%) ([2]; 20 μM): 42%
- cumulative number of CD34+CD38− cells ([3]; MNC culture, after 2 weeks, FIG. 17): non-detectable
- cumulative number of CD34+ cells ([3]; MNC culture, after 2 weeks): non-detectable
- cumulative number of CD34+CD38− cells ([3]; MNC culture, after 12 weeks, FIG. 17): 2.5×10^7 cells/ml
- cumulative number of CD34+ cells ([3]; MNC culture, after 12 weeks): over 8×10^7 cells/ml
- stem and progenitor cells densities vs pre-purified CD34+ cells cultures (not treated with TEPA) ([3]; TEPA-treated MNC cultures, 12-week period): either equalized or surpassed

SMILES: NCCNCCNCCNCCN.[Cl-].[Cl-].[Cu+2] [TEPA-Cu chelate, tetraethylenepentamine-copper chelate]
- CFUc ([1]; 5 μM): 0 CFUc
- CFUc ([1]; 10 μM): 1 CFUc
- CFUc ([1]; 15 μM): 30 CFUc
- CFUc ([1]; 20 μM): 120 CFUc
- numbers of CD34+ Lin− colony-forming cells, fold higher than untreated control ([1]; 20 μM): 7 fold
- CFUc ([1]; 40 μM): 400 CFUc
- numbers of CD34+ Lin− colony-forming cells, fold higher than untreated control ([1]; 40 μM): 9 fold
- numbers of CD34+ Lin− colony-forming cells, fold higher than untreated control ([1]; 50 μM): 7.5 fold
- effectiveness of higher vs lower concentrations on colony-forming cells ([1]; 100 μM vs 10 and 50 μM, 8 week-old cultures, FIG. 1): substantially more effective
- number of colony-forming cells of CD34+ vs untreated control [1]: substantially increased
- colony-forming cells of CD34+ vs cultures treated only with cytokines ([1]; 8 week-old cultures, FIG. 1): substantially more colony-forming cells
- numbers of CFUc vs non-treated control (cytokines only) ([1]; longer incubation (5, 6, 8 weeks), chelate supplemented first three weeks, FIGS. 2b-d): substantially higher
- Relative cellular-copper content (%) ([2]; 10 μM): 178%
- Relative cellular-copper content (%) ([2]; 30 μM): 235%
- Relative cellular-copper content (%) ([2]; 60 μM): 290%
- cumulative number of CD34+ cells per culture bag ([3]; 50 μM, MNC culture, 8 weeks): 12.37×10^6
- Portion of CD34+ cells (%) [3, 4]: 1.4%
- Number of CD34+ cells (×10^4) [3, 4]: 1237.3 ×10^4
- cumulative number of CD34+CD38− cells ([3]; 100 μM, MNC culture, 8 weeks, control 2.1×10^5): 6.1×10^5
- cumulative number of CD34+ cells per culture bag ([3]; 100 μM, MNC culture, 8 weeks): 32.85×10^6
- Portion of CD34+ cells (%) [3, 5]: 1.2%
- Nunber of CD34/38− cells (×10^4) ([3]; 100 μM, MNC culture, eight weeks after seeding, control 21): 61 ×10^4
- Number of CD34+ cells (×10^4) [3, 5]: 3285.3 ×10^4
